Assay [1] concerns Hedgehog signaling (Gli-Luc reporter). The assay is described as follows: Hh Gli-Luciferase reporter assay in Shh-Light2 cells. The format is cell-based, mouse. As to conditions: for Sonic hedgehog (SHH)-responsive Gli-luciferase reporter activity: Shh-conditioned media; for Purmorphamine-induced Gli-Luc reporter activity: purmorphamine 3 μM; for IC50 / EC50: Mus musculus, Shh Light2; for EC50: Table 9A, read-out: Shh Light2 Luc EC50. In a few lines:
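Steady-Glo luminescence, corrected for cell titer by CellTiter-Glo, was measured after overnight exposure to compound concentrations. Signaling in Gli-Luc Shh-Light2 cells came either from Shh-conditioned medium, 3 μM purmorphamine or 20 nM SAG, or from transfected Gli-2, PDE4D3 or DN-PDE4D3 constructs.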
In general terms: A reporter such as luciferase makes a cellular process visible.

In the next assay the test system is Ptch1 transcription. The assay is described as follows: Sufu−/− mouse embryonic fibroblasts qRT-PCR. Type of assay: cell-based. As to conditions: Mus musculus, Fibroblast; read-out: Sufu Null (Ptc) % Inh., 10 μM. In general terms: Quantitative PCR measures a nucleic acid by following its amplification.
The target of the next assay is T1, PDE4D3 (Homo sapiens, UniProt Q08499).
T1 construct: purchased BPS Biosciences (San Diego, Calif.); kinetic studies by Millipore (St. Louis, Mo.)
The experiment in a line: In vitro PDE assay. The format is biochemical. The note with it: for IC50: Table 9A; for Mode of inhibition (Lineweaver-Burk, Eadie Hofstee): purified PDE4D3. In a few lines:
(§1)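 Fluorescence polarization readout: FAM-AMP formed from 100 nM FAM-cAMP binds nano-bead agent (60 min) and is read at ex 485/em 528 nm. Enzyme reactions ran 60 min at room temperature in duplicate, Tris-HCl pH 7.4 buffer with 10 mM MgCl2 and 0.05% Tween 20, compound in 1% final DMSO.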

The next assay addresses T2, PDE4D2 (Homo sapiens, UniProt Q08499).
T2 construct: purchased BPS Biosciences (San Diego, Calif.)
The assay is described as follows: In vitro PDE assay. Type of assay: biochemical. The note with it: for IC50: Table 9A. The method, boiled down: as §1

A further assay has as its system H82. The assay is described as follows: Cell killing EC50 in H82 lung cancer cells (Table 10). The format is cell-based. As to conditions: human cancer cells. As to the method:
It is anticipated that compounds disclosed herein could serve as an anti-tumor, anti-angiogenic, anti-metastatic, agent in the treatment of cancer. To this end, a series of clinically relevant cancer lines were assayed and the cell-killing EC50s for compounds according to the subject matter disclosed herein are provided in Table 10.

Entries after “also recorded” stand apart in the source; their conditions may differ. Where only a bound is given, the exact number is not on record here.

T1 sequence (Q08499 1-673 isoform Q08499-2): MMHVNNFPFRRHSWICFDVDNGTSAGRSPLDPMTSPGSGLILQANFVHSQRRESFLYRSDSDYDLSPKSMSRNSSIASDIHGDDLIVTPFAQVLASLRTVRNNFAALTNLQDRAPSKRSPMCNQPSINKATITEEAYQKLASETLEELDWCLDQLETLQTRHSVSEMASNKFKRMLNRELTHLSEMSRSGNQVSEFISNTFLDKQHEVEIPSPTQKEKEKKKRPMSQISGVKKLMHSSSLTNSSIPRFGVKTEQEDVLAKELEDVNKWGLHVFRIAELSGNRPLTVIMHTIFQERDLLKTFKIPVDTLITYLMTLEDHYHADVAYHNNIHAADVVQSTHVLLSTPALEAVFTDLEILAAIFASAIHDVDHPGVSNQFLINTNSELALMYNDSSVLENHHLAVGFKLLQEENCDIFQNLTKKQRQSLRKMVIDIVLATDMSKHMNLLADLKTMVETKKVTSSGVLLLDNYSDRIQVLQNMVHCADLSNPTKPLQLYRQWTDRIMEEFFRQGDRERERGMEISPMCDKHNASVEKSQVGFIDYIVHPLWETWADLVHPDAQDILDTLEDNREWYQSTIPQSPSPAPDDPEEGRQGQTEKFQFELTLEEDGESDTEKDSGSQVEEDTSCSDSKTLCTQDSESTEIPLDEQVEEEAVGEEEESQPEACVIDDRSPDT
T2 sequence (Q08499 303-809): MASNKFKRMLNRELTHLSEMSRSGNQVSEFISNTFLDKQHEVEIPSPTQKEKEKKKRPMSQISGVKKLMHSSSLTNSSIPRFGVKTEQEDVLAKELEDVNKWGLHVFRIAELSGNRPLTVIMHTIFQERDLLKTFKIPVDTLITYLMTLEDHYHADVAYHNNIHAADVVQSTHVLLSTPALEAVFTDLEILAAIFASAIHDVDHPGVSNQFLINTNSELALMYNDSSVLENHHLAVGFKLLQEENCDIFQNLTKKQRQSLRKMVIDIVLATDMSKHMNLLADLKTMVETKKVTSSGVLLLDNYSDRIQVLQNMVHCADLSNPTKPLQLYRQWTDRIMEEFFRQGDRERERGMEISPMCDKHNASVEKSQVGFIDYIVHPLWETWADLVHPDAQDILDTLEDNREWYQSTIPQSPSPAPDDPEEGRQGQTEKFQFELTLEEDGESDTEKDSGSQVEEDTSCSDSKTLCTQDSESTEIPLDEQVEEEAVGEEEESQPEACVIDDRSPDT

As for `C=C(C)Cn1c(SCC(=O)c2cccs2)nc2sc3c(c2c1=O)CCCC3` [EGM, Eggmanone], in assay [1], the “Sonic hedgehog (SHH)-responsive Gli-luciferase reporter activity” value (from here on “Sonic hedgehog”) is on record as “inhibited Sonic hedgehog (SHH)-responsive Gli-luciferase (Gli-Luc) reporter activity in a dose-dependent manner” and the “Purmorphamine-induced Gli-Luc reporter activity” value is reported as “inhibited purmorphamine (Purm, 3 μM)-induced Gli-Luc reporter activity in a dose-dependent manner”. For the same molecule, the inhibition at 10 µM in the assay with Ptch1 transcription turned out to be 65.6%. Also, at PDE4D3, inhibition was half-maximal at 1.1 µM (IC50) and the “Mode of inhibition (Lineweaver-Burk, Eadie Hofstee)” value is “competitive mode of inhibition; also recorded: acts in a competitive manner”. This molecule showed an IC50 against PDE4D2 of 1.3 µM. Besides, the “CELL KILLING EC50 (μM) Lung H82” value with H82 was “UnCh”.

As for `C=C(C)Cn1c(SCC(=O)c2cccs2)nc2sc3c(c2c1=O)CCCC3` [Eggmanone, 3-(2-methylallyl)-2-((2-oxo-2-(thiophen-2-yl)ethyl)thio)-5,6,7,8-tetrahydrobenzo[4,5]thieno[2,3-d]pyrimidine-4(3H)-one], in assay [1], the IC50 is 1.5 µM; the “Sonic hedgehog” value was “inhibited Hh-inducible Gli-responsive luciferase (Gli-Luc) activity in a dose dependent manner”; the “Purmorphamine-induced Gli-Luc reporter activity” value was “blocked Gli-Luc reporter and ptch1 induction by purmorphamine”. Moreover, the “Sonic hedgehog” value in assay [1] (listed as eggmanone) is “inhibited Hh-inducible Gli-responsive luciferase (Gli-Luc) activity in a dose dependent manner”. For the same molecule, at PDE4D3, the “Potency against PDE4D3 versus any tested PDE not of the PDE4 family” value was “at least 60 fold” and the “Mode of inhibition (Lineweaver-Burk, Eadie Hofstee)” value is “exhibited a competitive mode of inhibition”. For the same molecule, on PDE4D2, the “Inhibition of super-short isoform PDE4D2” value is “not inhibited”.

On to `O=C(CSc1nc2sc3c(c2c(=O)n1C1CC1)CCCC3)c1cccs1` [JEH-3-039-2], for which the inhibition at 10 µM in the assay with Ptch1 transcription was 80.4%. Moreover, the IC50 at PDE4D3 is above 100 µM.

Regarding `C=CCn1c(SCC(=O)c2cccs2)nc2sc3c(c2c1=O)CCCC3` [JEH-3-039-3], the inhibition at 10 µM in the assay on Ptch1 transcription was 38.1%. Also, the IC50 on PDE4D3 and against PDE4D2 was above 100 µM in each case. The “CELL KILLING EC50 (μM) Lung H82” value with H82 was “UnCh”.

In the case of `C=C(C)Cn1c(SCC(=O)c2ccccc2)nc2sc3c(c2c1=O)CCCC3` [JEH-3-045-1], the inhibition at 10 µM in the assay on Ptch1 transcription came out at 47.6%. The IC50 at PDE4D3 turned out to be 18 µM; against PDE4D2, 14 µM.

Regarding `C=C(C)Cn1c(SCC(=O)c2ccncc2)nc2sc3c(c2c1=O)CCCC3` [JEH-3-048-1], the values for the IC50 (in assay [1]; on PDE4D3; at PDE4D2) were 10 µM, 24 µM and 16 µM, respectively. Further, the “CELL KILLING EC50 (μM) Lung H82” value with H82 is “UnCh”.

As for `C=C(C)Cn1c(SCC(=O)c2ccccn2)nc2sc3c(c2c1=O)CCCC3` [JEH-3-063], the IC50 in assay [1] was found to be 15 µM; on PDE4D3 it was 23 µM; at PDE4D2, 4.9 µM. Besides, the EC50 in assay [1] lay in the range of 10 to 20 µM. In addition, in the assay on H82, the “CELL KILLING EC50 (μM) Lung H82” value was “UnCh”.

Consider `C=C(C)Cn1c(SCC(=O)c2nccs2)nc2sc3c(c2c1=O)CCCC3` [JEH-3-069-1], for which, in assay [1], the EC50 was 10 to 20 µM. In addition, the IC50 on PDE4D3 is 15 µM; against PDE4D2, 6.4 µM. In addition, the “CELL KILLING EC50 (μM) Lung H82” value with H82 is “UnCh”.

One may read the IC50 as the point on the concentration scale where inhibition reaches its midpoint. The low end stands for inhibition by little substance, the high end for a need for much substance. As usually defined, the EC50 is the concentration needed to bring the measured effect to its halfway point.

Values taken from US10329304B2, “Compounds and methods for inhibition of hedgehog signaling and phosphodiesterase” (Vanderbilt University, priority 2014, dated 2019).
